Laboratory results from patent publication US10307413B2, “Tetrahydro- and dihydro-isoquinoline PRMT5 inhibitors and uses thereof” (Epizyme, Inc., priority 2013, dated 2019).
Where two headings read alike, the source gives them in different places.

Tests used:
[1] = target: PRMT5/MEP50 (Homo sapiens (Human), UniProt O14744); test: PRMT5 Biochemical Assay (PRMT5/MEP50 enzyme assay on peptide substrate, 3H-SAM Flashplate)
Text: S-adenosylmethionine (SAM), S-adenosylhomocysteine (SAH), bicine, KCl, Tween20, dimethylsulfoxide (DMSO), bovine skin gelatin (BSG), and Tris(2-carboxyethyl)phosphine hydrochloride solution (TCEP) were purchased from Sigma-Aldrich at the highest level of purity possible. ^3H-SAM was purchase from American Radiolabeled Chemicals with a specific activity of 80 Ci/mmol. 384-well streptavidin Flashplates were purchased from PerkinElmer.
Peptide representative of human histone H4 residues 1-15 was synthesized with a C-terminal linker-affinity tag motif and a C-terminal amide cap by 21st Century Biochemicals.
The amplified genes were sublconed into pENTR/D/TEV (Life Technologies) and subsequently transferred by Gateway™ attL×attR recombination to pDEST8 baculovirus expression vector (Life Technologies).
Protein over-expression was accomplished by infecting exponentially growing Spodoptera frugiperda (SF9) cell culture at 1.2×10^6 cell/ml with a 5000 fold dilution of BIIC stock. Infections were carried out at 27° C. for 72 hours, harvested by centrifugation, and stored at −80° C. for purification.
Flag-PRMT5/6His-MeP50 was eluted with 300 mM Imidazole in the same buffer.
General Procedure for PRMT5/MEP50 Enzyme Assays on Peptide Substrates.
The assays were all performed in a buffer consisting of 20 mM Bicine (pH=7.6), 1 mM TCEP, 0.005% BSG, and 0.002% Tween20, prepared on the day of use. […] DMSO (1 ul) was added to Columns 11, 12, 23, 24, rows A-H for the maximum signal control and 1 ul of SAH, a known product and inhibitor of PRMT5/MEP50, was added to columns 11, 12, 23, 24, rows I-P for the minimum signal control. A cocktail (40 ul) containing the PRMT5/MEP50 enzyme and the peptide was added by Multidrop Combi (Thermo-Fisher). The compounds were allowed to incubate with PRMT5/MEP50 for 30 min at 25 degrees Celsius, then a cocktail (10 ul) containing ^3H-SAM was added to initiate the reaction (final volume=51 ul). […] The assays were stopped by the addition of non-radioactive SAM (10 ul) to a final concentration of 600 uM, which dilutes the ^3H-SAM to a level where its incorporation into the peptide substrate is no longer detectable. 50 ul of the reaction in the 384-well polypropylene plate was then transferred to a 384-well Flashplate and the biotinylated peptides were allowed to bind to the streptavidin surface for at least 1 hour before being washed three times with 0.1% Tween20 in a Biotek ELx405 plate washer. The plates were then read in a PerkinElmer TopCount plate reader to measure the quantity of ^3H-labeled peptide bound to the Flashplate surface, measured as disintegrations per minute (dpm) or alternatively, referred to as counts per minute (cpm).
[formula] [formula] Where dpm=disintegrations per minute, cmpd=signal in assay well, and min and max are the respective minimum and maximum signal controls.
[formula] [formula] Where top and bottom are the normally allowed to float, but may be fixed at 100 or 0 respectively in a 3-parameter fit. The Hill Coefficient normally allowed to float but may also be fixed at 1 in a 3-parameter fit. Y is the % inhibition and X is the compound concentration.

[2] = test system: symmetric di-methyl arginine in Z-138 cells; test: Z-138 Methylation Assay (In Cell Western for symmetric di-methyl arginine and DNA content); assay type: cell-based; settings: Homo sapiens, read-out: ICW EC50
Outline: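 In-cell western: symmetric di-methyl arginine signal ratioed to DRAQ5 DNA content after 96 h compound exposure of Z-138 cells seeded at 50,000 cells/mL.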

[3] = test system: Z-138 cell line; test: Z-138 Proliferation Assay (Cell Titer Glo, 5 days); assay type: cell-based; settings: Homo sapiens, 120 h, Z-138 cells, 5 days, read-out: Proliferation EC50
Outline: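 Viability via CellTiter-Glo luminescence (ATP) after 5-day incubation at 37 °C, 5% CO2. Compounds tested in triplicate, nine 3-fold steps, highest final concentration 20 μM in 0.2% DMSO; 50% inhibitory concentration by 4-parameter fit of normalized curves.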

PRMT5/MEP50, sequence (O14744 other isoform, or with tags, fused parts or gaps): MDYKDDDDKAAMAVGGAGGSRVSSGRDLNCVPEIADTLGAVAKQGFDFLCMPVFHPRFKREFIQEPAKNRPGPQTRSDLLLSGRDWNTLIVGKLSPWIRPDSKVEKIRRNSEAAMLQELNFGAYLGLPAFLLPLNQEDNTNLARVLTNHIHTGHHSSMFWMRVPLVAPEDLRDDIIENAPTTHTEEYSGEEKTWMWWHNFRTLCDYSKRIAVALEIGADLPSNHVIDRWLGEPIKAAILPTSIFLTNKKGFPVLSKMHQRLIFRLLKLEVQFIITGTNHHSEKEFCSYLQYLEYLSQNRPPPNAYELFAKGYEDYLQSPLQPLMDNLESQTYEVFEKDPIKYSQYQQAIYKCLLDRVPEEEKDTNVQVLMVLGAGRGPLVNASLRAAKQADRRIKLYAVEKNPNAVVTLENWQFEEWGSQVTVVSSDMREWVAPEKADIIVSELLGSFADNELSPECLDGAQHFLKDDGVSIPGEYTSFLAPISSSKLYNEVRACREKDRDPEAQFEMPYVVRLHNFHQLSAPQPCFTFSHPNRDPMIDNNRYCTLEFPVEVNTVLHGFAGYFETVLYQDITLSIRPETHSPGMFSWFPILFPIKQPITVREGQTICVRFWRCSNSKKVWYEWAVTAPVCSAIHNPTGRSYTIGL
PRMT5/MEP50, sequence (Q9BQA1 other isoform, or with tags, fused parts or gaps partner): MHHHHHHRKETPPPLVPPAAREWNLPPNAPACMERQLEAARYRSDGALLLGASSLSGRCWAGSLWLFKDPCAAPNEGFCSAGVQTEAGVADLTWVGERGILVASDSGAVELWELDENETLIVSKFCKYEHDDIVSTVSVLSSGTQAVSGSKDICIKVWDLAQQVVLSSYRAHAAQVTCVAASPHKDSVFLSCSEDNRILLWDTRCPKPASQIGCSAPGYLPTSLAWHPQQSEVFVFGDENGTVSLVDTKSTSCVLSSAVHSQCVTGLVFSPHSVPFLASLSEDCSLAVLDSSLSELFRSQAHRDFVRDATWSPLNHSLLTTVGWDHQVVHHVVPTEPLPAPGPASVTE

CC(=O)N1CC(Nc2cc(C(=O)NCC(N)CN3CCc4ccccc4C3)ncn2)C1 (stereo not drawn) [Compound 699]
IC50 ([1]; PRMT5 biochemical assay): 0.101 to 1 µM

CC(=O)N1CCC(Nc2cc(C(=O)NC[C@H](O)CN3Cc4ccccc4C(O)C3)ccn2)CC1 (stereo partly drawn) [Compound 680]
IC50 ([1]; PRMT5 biochemical assay): > 10 µM | EC50 ([2]; In Cell Western methylation): > 1 µM

O=C(NC[C@H](O)CN1CCc2ccccc2C1)c1ccnc(NC2CCN(C(=O)C3CCC3)CC2)c1 [Compound 455]
IC50 ([1]; PRMT5 biochemical assay): < 0.1 µM | EC50 ([3]; Cell Titer Glo): < 0.1 µM

CC(=O)N1CCC(Nc2cc(C(=O)NC[C@H](O)CN3Cc4ccccc4CC3C)ccn2)CC1 (stereo partly drawn) [Compound 696]
IC50 ([1]; PRMT5 biochemical assay): 1 to 10 µM | EC50 ([2]; In Cell Western methylation): 0.101 to 1 µM

CS(=O)(=O)Nc1ccccc1C(=O)NCC(O)CN1CCc2ccccc2C1 (stereo not drawn) [Compound 27]
IC50 [1]: 1 to 10 µM

CC(Nc1cccc(C(=O)NCC(O)CN2CCc3ccccc3C2)c1)C1CCOCC1 (stereo not drawn) [Compound 52, N-(3-(3,4-dihydroisoquinolin-2(1H)-yl)-2-hydroxypropyl)-3-((1-(tetrahydro-2H-pyran-4-yl)ethyl)amino)benzamide]
IC50 [1]: 0.101 to 1 µM

CC(NC(=O)c1cc(NC2COC2)ncn1)[C@H](O)CN1CCc2ccccc2C1 (stereo partly drawn) [Compound 493]
IC50 ([1]; PRMT5 biochemical assay): 1 to 10 µM | EC50 ([2]; In Cell Western methylation): > 1 µM

CCN(c1cccc(C(=O)NCC(O)CN2CCc3ccccc3C2)c1)C1CCOCC1 (stereo not drawn) [Compound 47]
IC50 [1]: 0.101 to 1 µM | EC50 [2]: 0.101 to 1 µM

O=C(NCC(O)CN1CCc2ccccc2C1)c1cccc(C(=O)N2CCOCC2)c1 (stereo not drawn) [Compound 46, N-(3-(3,4-dihydroisoquinolin-2(1H)-yl)-2-hydroxypropyl)-3-(morpholine-4-carbonyl)benzamide]
IC50 [1]: 1 to 10 µM

O=C(NCC(F)CN1CCc2ccccc2C1)c1cc(NC2COC2)ncn1 (stereo not drawn) [Compound 697]
IC50 ([1]; PRMT5 biochemical assay): 1 to 10 µM | EC50 ([2]; In Cell Western methylation): > 1 µM

CN(C)C(=O)CN1CC(Nc2cc(C(=O)NC[C@H](O)CN3CCc4ccccc4C3)ncn2)C1 [Compound 623]
IC50 ([1]; PRMT5 biochemical assay): < 0.1 µM | EC50 ([3]; Cell Titer Glo): 10 to 50 µM

COc1cc(NC2CCOCC2)cc(C(=O)NCC(O)CN2CCc3ccccc3C2)c1 (stereo not drawn) [Compound 56]
IC50 [1]: 0.101 to 1 µM

CC(=O)N1CCC(Nc2cc(C(=O)NCC(N)CN3CCc4ccccc4C3)ncn2)CC1 (stereo not drawn) [Compound 701]
IC50 ([1]; PRMT5 biochemical assay): 0.101 to 1 µM

NC1=NC(C(=O)NC[C@H](O)CN2CCc3ccccc3C2)=CC2=NC(CO)CN12 (stereo partly drawn) [Compound 625]
IC50 ([1]; PRMT5 biochemical assay): 0.101 to 1 µM | EC50 ([3]; Cell Titer Glo): > 5 µM

CC1(C)CC(Nc2cccc(C(=O)NCC(O)CN3CCc4ccccc4C3)c2)CCO1 (stereo not drawn) [Compound 53, N-(3-(3,4-dihydroisoquinolin-2(1H)-yl)-2-hydroxypropyl)-3-((2,2-dimethyltetrahydro-2H-pyran-4-yl)amino)benzamide]
IC50 [1]: 0.101 to 1 µM

O=C(NCC(O)CN1CCc2ccccc2C1)c1cccc(CN2CCOCC2)c1 (stereo not drawn) [Compound 51, N-(3-(3,4-dihydroisoquinolin-2(1H)-yl)-2-hydroxypropyl)-3-(morpholinomethyl)benzamide]
IC50 [1]: 0.101 to 1 µM

O=C(NCC(O)CN1CCc2ccccc2C1)c1cccc(NC2COC2)c1 (stereo not drawn) [Compound 50, N-(3-(3,4-dihydroisoquinolin-2(1H)-yl)-2-hydroxypropyl)-3-(oxetan-3-ylamino)benzamide]
IC50 [1]: 0.101 to 1 µM

O=C(NCC(O)CN1CCc2ccccc2C1)c1cc(NC2CCOCC2)ccc1F (stereo not drawn) [Compound 57, N-(3-(3,4-dihydroisoquinolin-2(1H)-yl)-2-hydroxypropyl)-2-fluoro-5-((tetrahydro-2H-pyran-4-yl)amino)benzamide]
IC50 [1]: 0.101 to 1 µM

CN(c1cccc(C(=O)NCC(O)CN2CCc3ccccc3C2)c1)C1CCOCC1 (stereo not drawn) [Compound 49, N-(3-(3,4-dihydroisoquinolin-2(1H)-yl)-2-hydroxypropyl)-3-(methyl(tetrahydro-2H-pyran-4-yl)amino)benzamide]
IC50 [1]: 0.101 to 1 µM

COc1c(NC2COC2)ncnc1C(=O)NC[C@H](O)CN1CCc2ccccc2C1 [Compound 338]
IC50 [1]: 1 to 10 µM

O=C(NCC(O)CN1CCc2ccccc2C1)c1ccc(F)c(NC2CCOCC2)c1 (stereo not drawn) [Compound 65]
EC50 [2]: < 0.1 µM | EC50 [3]: 1 to 10 µM

Cc1ccc2cc(C(=O)NC[C@H](O)CN3CCc4ccccc4C3)ccc2n1 [Compound 221, (S)—N-(3-(3,4-dihydroisoquinolin-2(1H)-yl)-2-hydroxypropyl)-2-methylquinoline-6-carboxamide]
EC50 [2]: < 0.1 µM | EC50 [3]: 0.101 to 1 µM

O=C(NC[C@H](O)CN1CCc2ccccc2C1)c1ccnc(NC2CCN(CC(F)(F)F)C2)c1 (stereo partly drawn) [Compound 226]
EC50 [2]: < 0.1 µM | EC50 [3]: 0.101 to 1 µM

O=C(NCC(O)CN1CCc2ccccc2C1)c1cccc(OC2CCOCC2)c1 (stereo not drawn) [Compound 48]
IC50 [1]: 0.101 to 1 µM | EC50 [2]: 0.101 to 1 µM

CS(=O)(=O)N1CC(Nc2cc(C(=O)NC[C@H](O)CN3CCc4ccccc4C3)ccn2)C1 [Compound 278]
EC50 [2]: < 0.1 µM | EC50 [3]: 0.101 to 1 µM

CN(CCN(C)S(C)(=O)=O)c1cc(C(=O)NC[C@H](O)CN2CCc3ccccc3C2)ccn1 [Compound 263]
EC50 [2]: < 0.1 µM | EC50 [3]: 1 to 10 µM

CC(=O)N1CCC(Nc2ccc(C(=O)NCC(O)CN3CCc4ccccc4C3)cc2)CC1 (stereo not drawn) [Compound 127]
EC50 [2]: < 0.1 µM | EC50 [3]: 1 to 10 µM

CS(=O)(=O)N1CCN(Cc2cccc(C(=O)NCC(O)CN3CCc4ccccc4C3)c2)CC1 (stereo not drawn) [Compound 91]
EC50 [2]: < 0.1 µM | EC50 [3]: 1 to 10 µM

O=C(NC[C@H](O)CN1CCc2ccccc2C1)c1cncc(NC2CCOC2)c1 (stereo partly drawn) [Compound 211]
EC50 [2]: < 0.1 µM | EC50 [3]: < 0.1 µM

CN(C)CCN(C)c1cc(C(=O)NC[C@H](O)CN2CCc3ccccc3C2)ccn1 [Compound 186]
EC50 [2]: < 0.1 µM | EC50 [3]: 1 to 10 µM

CN(C)CCOc1cc(C(=O)NC[C@H](O)CN2CCc3ccccc3C2)ccn1 [Compound 234]
EC50 [2]: < 0.1 µM | EC50 [3]: 1 to 10 µM

CN(C)C(=O)CNCc1cccc(C(=O)NCC(O)CN2CCc3ccccc3C2)c1 (stereo not drawn) [Compound 118]
EC50 [2]: 0.101 to 1 µM | EC50 [3]: > 20 µM

CC(=O)N1CCC(Nc2cc(C(=O)NC[C@H](O)CN3Cc4ccccc4C(C)C3)ccn2)CC1 (stereo partly drawn) [Compound 695]
IC50 ([1]; PRMT5 biochemical assay): > 10 µM | EC50 ([2]; In Cell Western methylation): > 1 µM

O=C(NCC(O)CN1CCc2ccccc2C1)c1cccc(NC2CCN(CC(F)(F)F)C2)c1 (stereo not drawn) [Compound 102]
EC50 [2]: < 0.1 µM | EC50 [3]: 1 to 10 µM

O=C(NC[C@H](O)CN1CCc2ccccc2C1)c1ccc2c(c1)CCCC2 [Compound 247]
EC50 [2]: 0.101 to 1 µM | EC50 [3]: 1 to 10 µM

CC(=O)N1CCC(Oc2ccc(C(=O)NCC(O)CN3CCc4ccccc4C3)cc2)CC1 (stereo not drawn) [Compound 107]
EC50 [2]: < 0.1 µM | EC50 [3]: 0.101 to 1 µM

O=C(NC[C@H](O)CN1CCc2ccccc2C1)c1cc(NC2CCNC2)ncn1 (stereo partly drawn) [Compound 209]
EC50 [2]: < 0.1 µM | EC50 [3]: 10 to 50 µM

NS(=O)(=O)c1ccccc1C(=O)NCC(O)CN1CCc2ccccc2C1 (stereo not drawn) [Compound 33]
IC50 [1]: 1 to 10 µM
